Results from ChEMBL document CHEMBL4308841, “Synthesis, in vitro antiproliferative activity, and kinase inhibitory effects of pyrazole-containing diarylureas and diarylamides” (Eur J Med Chem, 2018).

Experiments:
KM12 = experiment: Growth inhibition of human KM12 cells assessed as cell growth at 1 uM incubated for 48 hrs by sulforhodamine B assay relative to control; type: functional; settings: KM12, 48 h, read-out: Activity
M14 = experiment: Growth inhibition of human M14 cells assessed as cell growth at 0.01 uM incubated for 48 hrs by sulforhodamine B assay relative to control; type: functional; settings: M14, 48 h, read-out: Activity
RPMI-8226 = experiment: Growth inhibition of human RPMI8226 cells assessed as cell growth at 0.1 uM incubated for 48 hrs by sulforhodamine B assay relative to control; type: functional; settings: RPMI-8226, 48 h, read-out: Activity
IGROV-1 = experiment: Growth inhibition of human IGROV1 cells assessed as cell growth at 1 uM incubated for 48 hrs by sulforhodamine B assay relative to control; type: functional; settings: IGROV-1, 48 h, read-out: Activity
SK-MEL-2 = experiment: Growth inhibition of human SK-MEL-2 cells assessed as cell growth at 0.1 uM incubated for 48 hrs by sulforhodamine B assay relative to control; type: functional; settings: SK-MEL-2, 48 h, read-out: Activity
Malme-3M = experiment: Growth inhibition of human MALME-3M cells assessed as cell growth at 0.1 uM incubated for 48 hrs by sulforhodamine B assay relative to control; type: functional; settings: read-out: Activity
BT-549 = experiment: Growth inhibition of human BT549 cells assessed as cell growth at 0.01 uM incubated for 48 hrs by sulforhodamine B assay relative to control; type: functional; settings: BT-549, 48 h, read-out: Activity
CCRF-CEM [1] = experiment: Growth inhibition of human CCRF-CEM cells assessed as cell growth at 0.01 uM incubated for 48 hrs by sulforhodamine B assay relative to control; type: functional; settings: read-out: Activity
UACC-62 [2] = experiment: Growth inhibition of human UACC62 cells assessed as cell growth at 0.01 uM incubated for 48 hrs by sulforhodamine B assay relative to control; type: functional; settings: UACC-62, 48 h, read-out: Activity
UACC-62 [3] = experiment: Growth inhibition of human UACC62 cells assessed as cell growth at 100 uM incubated for 48 hrs by sulforhodamine B assay relative to control; type: functional; settings: UACC-62, 48 h, read-out: Activity
SNB-19 = experiment: Growth inhibition of human SNB19 cells assessed as cell growth at 100 uM incubated for 48 hrs by sulforhodamine B assay relative to control; type: functional; settings: SNB-19, 48 h, read-out: Activity
COLO 205 = experiment: Growth inhibition of human COLO205 cells incubated for 48 hrs by sulforhodamine B assay; type: functional, cell-based; settings: COLO 205, 48 h
OVCAR-8 = experiment: Growth inhibition of human OVCAR8 cells assessed as cell growth at 1 uM incubated for 48 hrs by sulforhodamine B assay relative to control; type: functional; settings: OVCAR-8, 48 h, read-out: Activity
SF-268 [4] = experiment: Growth inhibition of human SF268 cells assessed as cell growth at 100 uM incubated for 48 hrs by sulforhodamine B assay relative to control; type: functional; settings: SF-268, 48 h, read-out: Activity
LOX IMVI = experiment: Growth inhibition of human LOXIMVI cells assessed as cell growth at 0.1 uM incubated for 48 hrs by sulforhodamine B assay relative to control; type: functional; settings: read-out: Activity
OVCAR-4 [5] = experiment: Growth inhibition of human OVCAR4 cells assessed as cell growth at 0.1 uM incubated for 48 hrs by sulforhodamine B assay relative to control; type: functional; settings: OVCAR-4, 48 h, read-out: Activity
PC-3 = experiment: Growth inhibition of human PC3 cells assessed as cell growth at 0.01 uM incubated for 48 hrs by sulforhodamine B assay relative to control; type: functional; settings: PC-3, 48 h, read-out: Activity
OVCAR-4 [6] = experiment: Growth inhibition of human OVCAR4 cells incubated for 48 hrs by sulforhodamine B assay; type: functional, cell-based; settings: OVCAR-4, 48 h
NCI-H522 = experiment: Growth inhibition of human NCI-H522 cells incubated for 48 hrs by sulforhodamine B assay; type: functional, cell-based; settings: NCI-H522, 48 h
CCRF-CEM [7] = experiment: Growth inhibition of human CCRF-CEM cells assessed as cell growth at 100 uM incubated for 48 hrs by sulforhodamine B assay relative to control; type: functional; settings: read-out: Activity
U-251 [8] = experiment: Growth inhibition of human U251 cells assessed as cell growth at 0.1 uM incubated for 48 hrs by sulforhodamine B assay relative to control; type: functional; settings: U-251, 48 h, read-out: Activity
U-251 [9] = experiment: Growth inhibition of human U251 cells assessed as cell growth at 100 uM incubated for 48 hrs by sulforhodamine B assay relative to control; type: functional; settings: U-251, 48 h, read-out: Activity
K562 = experiment: Growth inhibition of human K562 cells incubated for 48 hrs by sulforhodamine B assay; type: functional, cell-based; settings: K562, 48 h
SF-268 [10] = experiment: Growth inhibition of human SF268 cells incubated for 48 hrs by sulforhodamine B assay; type: functional, cell-based; settings: SF-268, 48 h
OVCAR-5 [11] = experiment: Growth inhibition of human OVCAR5 cells assessed as cell growth at 100 uM incubated for 48 hrs by sulforhodamine B assay relative to control; type: functional; settings: OVCAR-5, 48 h, read-out: Activity
UACC-62 [12] = experiment: Growth inhibition of human UACC62 cells incubated for 48 hrs by sulforhodamine B assay; type: functional, cell-based; settings: UACC-62, 48 h
OVCAR-5 [13] = experiment: Growth inhibition of human OVCAR5 cells incubated for 48 hrs by sulforhodamine B assay; type: functional, cell-based; settings: OVCAR-5, 48 h
HCT-116 = experiment: Growth inhibition of human HCT116 cells assessed as cell growth at 100 uM incubated for 48 hrs by sulforhodamine B assay relative to control; type: functional; settings: HCT-116, 48 h, read-out: Activity
SK-MEL-28 = experiment: Growth inhibition of human SK-MEL-28 cells assessed as cell growth at 100 uM incubated for 48 hrs by sulforhodamine B assay relative to control; type: functional; settings: SK-MEL-28, 48 h, read-out: Activity
[14] = read-out: LC50 (the source's name)
[15] = read-out: pLC50 (the source's name) (converted)

COc1cc(Cl)cc(-c2nn(-c3cccc(NC(=O)Nc4ccc(Cl)c(C(F)(F)F)c4)c3)cc2-c2ccncc2)c1
growth at 1 µM (KM12): 33% | growth at 0.01 µM (M14): 97% | growth at 0.1 µM (RPMI-8226): 100% | growth at 1 µM (IGROV-1): 87% | growth at 0.1 µM (SK-MEL-2): 52% | growth at 0.1 µM (Malme-3M): 79% | growth at 0.01 µM (BT-549): 92% | growth at 0.01 µM (CCRF-CEM [1]): 97% | growth at 0.01 µM (UACC-62 [2]): 95% | growth at 100 µM (UACC-62 [3]): -85% | growth at 100 µM (SNB-19): -25% | GI50 (COLO 205; read-out: GI50): 1.53 µM | CC50 (COLO 205; [14]): 6.33 µM | TGI (COLO 205; read-out: TGI): 31.1 µM | GI50 (COLO 205; read-out: pGI50 (converted)): 1.51 µM | CC50 (COLO 205; [15]): 6.31 µM | TGI (COLO 205; read-out: pTGI (converted)): 3.09 µM | growth at 1 µM (OVCAR-8): 43% | growth at 100 µM (SF-268 [4]): -58% | growth at 0.1 µM (LOX IMVI): 97% | growth at 0.1 µM (OVCAR-4 [5]): 97% | growth at 0.01 µM (PC-3): 94% | GI50 (OVCAR-4 [6]; read-out: GI50): 1.53 µM | CC50 (OVCAR-4 [6]; [14]): > 100 µM | TGI (OVCAR-4 [6]; read-out: TGI): 25.5 µM | GI50 (OVCAR-4 [6]; read-out: pGI50 (converted)): 1.82 µM | CC50 (OVCAR-4 [6]; [15]): > 100 µM | TGI (OVCAR-4 [6]; read-out: pTGI (converted)): 2.63 µM | GI50 (NCI-H522; read-out: GI50): 0.418 µM | CC50 (NCI-H522; [14]): 9.74 µM | TGI (NCI-H522; read-out: TGI): 25 µM | GI50 (NCI-H522; read-out: pGI50 (converted)): 0.417 µM | CC50 (NCI-H522; [15]): 9.77 µM | TGI (NCI-H522; read-out: pTGI (converted)): 2.51 µM | growth at 100 µM (CCRF-CEM [7]): -29% | growth at 0.1 µM (U-251 [8]): 92% | growth at 100 µM (U-251 [9]): -100% | GI50 (K562; read-out: GI50): 0.537 µM | LC50 (K562; read-out: LC50): 9.55 µM | TGI (K562; read-out: TGI): 10.1 µM | GI50 (K562; read-out: pGI50 (converted)): 5.37 µM | LC50 (K562; read-out: pLC50 (converted)): 95.5 µM | TGI (K562; read-out: pTGI (converted)): 10 µM | GI50 (SF-268 [10]; read-out: GI50): 2.55 µM | CC50 (SF-268 [10]; [14]): 7.96 µM | TGI (SF-268 [10]; read-out: TGI): 12.1 µM | GI50 (SF-268 [10]; read-out: pGI50 (converted)): 2.63 µM | CC50 (SF-268 [10]; [15]): 79.4 µM | TGI (SF-268 [10]; read-out: pTGI (converted)): 12 µM | growth at 100 µM (OVCAR-5 [11]): -89% | IC50 (UACC-62 [12]): 1.27 µM | GI50 (UACC-62 [12]; read-out: GI50): 1.27 µM | CC50 (UACC-62 [12]; [14]): 9.51 µM | TGI (UACC-62 [12]; read-out: TGI): 35.4 µM | GI50 (UACC-62 [12]; read-out: pGI50 (converted)): 1.29 µM | CC50 (UACC-62 [12]; [15]): 9.77 µM | TGI (UACC-62 [12]; read-out: pTGI (converted)): 4.9 µM | GI50 (OVCAR-5 [13]; read-out: GI50): 2.13 µM | CC50 (OVCAR-5 [13]; [14]): 3.01 µM | TGI (OVCAR-5 [13]; read-out: TGI): 71.5 µM | GI50 (OVCAR-5 [13]; read-out: pGI50 (converted)): 2.14 µM | CC50 (OVCAR-5 [13]; [15]): 30.2 µM | TGI (OVCAR-5 [13]; read-out: pTGI (converted)): 28.8 µM | growth at 100 µM (HCT-116): -94% | growth at 100 µM (SK-MEL-28): -88%
